Data from ChEMBL document CHEMBL1201862, “PubChem BioAssay data set” (2004).
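Cultured in 96-well plates, cells were exposed to test compound for 48 hours across five concentrations. GI50 = concentration required for 50% inhibition of growth.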 Active and inactive are the calls of the source. Cut-off read from the data, not from the text of the source: active = GI50 up to about 1.1 µM and inactive = higher.

Experiments:
Experiment in all cases: NCI anticancer screen, dose series, 48 h
SK-MEL-5 = system: SK-MEL-5
PC-3 = system: PC-3
HCT-15 = system: HCT-15
ACHN = system: ACHN
SR = system: SR
KM12 = system: KM12
RPMI-8226 = system: RPMI-8226
SF-295 = system: SF-295
HOP-62 = system: HOP-62
T47D = system: T47D
TK-10 = system: TK-10
U-251 = system: U-251
UO-31 = system: UO-31
MDA-MB-435 = system: MDA-MB-435
K562 = system: K562
HCT-116 = system: HCT-116
CAKI-1 = system: CAKI-1
MDA-MB-231 = system: MDA-MB-231
NCI-H522 = system: NCI-H522

| SMILES | GI50 (SK-MEL-5) | GI50 (PC-3) | GI50 (HCT-15) [µM] | GI50 (ACHN) | GI50 (SR) | GI50 (KM12) | GI50 (RPMI-8226) | GI50 (SF-295) | GI50 (HOP-62) | GI50 (T47D) | GI50 (TK-10) | GI50 (U-251) | GI50 (UO-31) | GI50 (MDA-MB-435) | GI50 (K562) | GI50 (HCT-116) | GI50 (CAKI-1) | GI50 (MDA-MB-231) | GI50 (NCI-H522) |
| --- | --- | --- | --- | --- | --- | --- | --- | --- | --- | --- | --- | --- | --- | --- | --- | --- | --- | --- | --- |
| COc1cc(COC(=O)N2CCCCC2C(=O)O)c([N+](=O)[O-])cc1OC (centres undefined) | > 100 µM (inactive) | > 100 µM (inactive) | > 100 | > 100 µM (inactive) | > 100 µM (inactive) | > 100 µM (inactive) | > 100 µM (inactive) | > 100 µM (inactive) | > 100 µM (inactive) | > 100 µM (inactive) | > 100 µM (inactive) | > 100 µM (inactive) | > 100 µM (inactive) | > 100 µM (inactive) | > 100 µM (inactive) | > 100 µM (inactive) | – | – | – |
| CN1C(=O)NC(=O)/C(=C\Nc2ncccn2)C1=O | > 100 µM (inactive) | > 100 µM (inactive) | > 100 | > 100 µM (inactive) | – | > 100 µM (inactive) | – | > 100 µM (inactive) | > 100 µM (inactive) | > 100 µM (inactive) | > 100 µM (inactive) | > 100 µM (inactive) | > 100 µM (inactive) | > 100 µM (inactive) | – | > 100 µM (inactive) | > 100 µM (inactive) | > 100 µM (inactive) | > 100 µM (inactive) |
| CCCCCCCCCCCCCCCCOCC(CC(F)(F)P(=O)(OCC)OCC)OC(C)=O (centres undefined) | 21.1 µM (inactive) | 13.8 µM (inactive) | 5.94 | 13.9 µM (inactive) | – | 11.6 µM (inactive) | 25.1 µM (inactive) | 11.6 µM (inactive) | – | – | 14 µM (inactive) | 2.72 µM (inactive) | 16 µM (inactive) | 18.6 µM (inactive) | 14.1 µM (inactive) | 3.17 µM (inactive) | 16.6 µM (inactive) | 14.9 µM (inactive) | 13.1 µM (inactive) |
| CC(C)CCn1nc(N)c2nc3ccccc3nc21 | – | > 100 µM (inactive) | > 10 | 41.3 µM (inactive) | 15.2 µM (inactive) | > 100 µM (inactive) | > 100 µM (inactive) | > 100 µM (inactive) | > 100 µM (inactive) | – | > 100 µM (inactive) | > 100 µM (inactive) | > 100 µM (inactive) | > 100 µM (inactive) | 57.1 µM (inactive) | 56 µM (inactive) | 64.4 µM (inactive) | – | > 100 µM (inactive) |
| O=[N+]([O-])c1ccc2c(c1)Sc1ccccc1N2CCCCCl | > 100 µM (inactive) | > 100 µM (inactive) | > 100 | > 100 µM (inactive) | > 100 µM (inactive) | > 100 µM (inactive) | > 100 µM (inactive) | > 100 µM (inactive) | > 100 µM (inactive) | – | > 100 µM (inactive) | > 100 µM (inactive) | > 100 µM (inactive) | > 100 µM (inactive) | 70.6 µM (inactive) | > 100 µM (inactive) | > 100 µM (inactive) | > 100 µM (inactive) | > 100 µM (inactive) |
| CC(=O)Nc1ccc2nc(-c3ccccn3)c(-c3ccccn3)nc2c1 | > 100 µM (inactive) | > 100 µM (inactive) | > 100 | > 100 µM (inactive) | > 100 µM (inactive) | > 100 µM (inactive) | > 100 µM (inactive) | > 100 µM (inactive) | – | – | > 100 µM (inactive) | > 100 µM (inactive) | > 100 µM (inactive) | > 100 µM (inactive) | > 100 µM (inactive) | – | > 100 µM (inactive) | > 100 µM (inactive) | > 100 µM (inactive) |
| O=C(NC(CO)CO)c1ccc2cc(C(=O)N3CC(CCl)c4ccc([N+](=O)[O-])cc43)[nH]c2c1 (centres undefined) | > 100 µM (inactive) | > 100 µM (inactive) | > 100 | > 100 µM (inactive) | – | > 100 µM (inactive) | – | > 100 µM (inactive) | > 100 µM (inactive) | 0.619 µM (active) | > 100 µM (inactive) | > 100 µM (inactive) | > 100 µM (inactive) | > 100 µM (inactive) | > 100 µM (inactive) | > 100 µM (inactive) | > 100 µM (inactive) | 66.1 µM (inactive) | – |
| [O-][S+](Nc1ccccc1)c1ccccc1Oc1ccccc1 (centres undefined) | 30.5 µM (inactive) | 39.2 µM (inactive) | 27.7 | 46 µM (inactive) | 7.41 µM (inactive) | 18.8 µM (inactive) | 43.3 µM (inactive) | 28.2 µM (inactive) | 32.7 µM (inactive) | – | > 100 µM (inactive) | 22 µM (inactive) | 20.9 µM (inactive) | 40.8 µM (inactive) | 48.6 µM (inactive) | 34.1 µM (inactive) | 39.8 µM (inactive) | 36.2 µM (inactive) | 25 µM (inactive) |
| CCCCN(CCCC)c1ccc(/N=N/c2ccc(S(=O)(=O)O)cc2)cc1 | 16.2 µM (inactive) | 25.8 µM (inactive) | 17.2 | 46.7 µM (inactive) | – | 12.8 µM (inactive) | 20.4 µM (inactive) | 40.9 µM (inactive) | – | 25.5 µM (inactive) | 67.8 µM (inactive) | 32.3 µM (inactive) | 72.3 µM (inactive) | 57.9 µM (inactive) | 26.9 µM (inactive) | 15.6 µM (inactive) | 20.2 µM (inactive) | 25.4 µM (inactive) | – |
| O=C1/C(=C/c2ccco2)N=C(c2ccccc2)N1c1cc2cc(Sc3ccccc3)ccc2[nH]1 | – | > 25 µM (inactive) | > 25 | > 25 µM (inactive) | 5.18 µM (inactive) | – | 0.457 µM (active) | – | – | 15.8 µM (inactive) | – | – | 18.8 µM (inactive) | 6.55 µM (inactive) | 7.96 µM (inactive) | > 25 µM (inactive) | 9.46 µM (inactive) | – | 11.6 µM (inactive) |
| Nc1nc(Cl)cc(NCCCCCCNc2cc(Cl)nc(N)n2)n1 | 13.1 µM (inactive) | – | 78.9 | 2.88 µM (inactive) | 42 µM (inactive) | > 100 µM (inactive) | 45.3 µM (inactive) | 28.1 µM (inactive) | > 100 µM (inactive) | – | > 100 µM (inactive) | > 100 µM (inactive) | > 100 µM (inactive) | – | 28.6 µM (inactive) | 30.7 µM (inactive) | 27.7 µM (inactive) | – | 27.7 µM (inactive) |
| COc1ccc(C2CCC(Cl)(OC)CC2C=O)cc1 (centres undefined) | 58.7 µM (inactive) | – | 49.4 | 95.9 µM (inactive) | 41.1 µM (inactive) | > 100 µM (inactive) | 45.7 µM (inactive) | 46.1 µM (inactive) | 94 µM (inactive) | – | > 100 µM (inactive) | 43.9 µM (inactive) | 80.4 µM (inactive) | – | > 100 µM (inactive) | 52 µM (inactive) | 39.8 µM (inactive) | – | 64.7 µM (inactive) |
| NC1=C(N2CCOCC2)C(=O)NC2=N/C(=C\c3ccccc3O)C(=O)N21 | 73.6 µM (inactive) | – | 51.1 | > 100 µM (inactive) | 35.6 µM (inactive) | > 100 µM (inactive) | 20.5 µM (inactive) | > 100 µM (inactive) | – | 51.2 µM (inactive) | > 100 µM (inactive) | > 100 µM (inactive) | > 100 µM (inactive) | > 100 µM (inactive) | 52.2 µM (inactive) | > 100 µM (inactive) | > 100 µM (inactive) | > 100 µM (inactive) | 76.2 µM (inactive) |
| Cc1oc2nc(N(C)C)n3c(C)nnc3c2c1C | > 100 µM (inactive) | – | > 100 | > 100 µM (inactive) | > 100 µM (inactive) | > 100 µM (inactive) | > 100 µM (inactive) | > 100 µM (inactive) | – | > 100 µM (inactive) | > 100 µM (inactive) | > 100 µM (inactive) | > 100 µM (inactive) | > 100 µM (inactive) | > 100 µM (inactive) | > 100 µM (inactive) | > 100 µM (inactive) | > 100 µM (inactive) | > 100 µM (inactive) |
| O=c1nc2n(cc1/C=C\Br)C1CC(O)C(CO2)O1 (centres undefined) | > 100 µM (inactive) | – | > 100 | > 100 µM (inactive) | – | > 100 µM (inactive) | > 100 µM (inactive) | > 100 µM (inactive) | > 100 µM (inactive) | > 100 µM (inactive) | > 100 µM (inactive) | > 100 µM (inactive) | > 100 µM (inactive) | > 100 µM (inactive) | 5.16 µM (inactive) | > 100 µM (inactive) | > 100 µM (inactive) | > 100 µM (inactive) | – |
| COc1ccc(-c2nc(Nc3ccccc3)sc2Cc2sc(Nc3ccccc3)nc2-c2ccc(OC)cc2)cc1 | > 100 µM (inactive) | – | > 100 | 45.1 µM (inactive) | 26 µM (inactive) | 8.59 µM (inactive) | 1.8 µM (inactive) | > 10 µM (inactive) | > 100 µM (inactive) | 38.5 µM (inactive) | > 100 µM (inactive) | > 100 µM (inactive) | > 100 µM (inactive) | 52.4 µM (inactive) | 5.18 µM (inactive) | 43.4 µM (inactive) | > 100 µM (inactive) | > 100 µM (inactive) | – |
| CCOC(=O)/C(C#N)=C/Nc1c(C)n(C)n(-c2ccccc2)c1=O | > 100 µM (inactive) | > 100 µM (inactive) | > 100 | > 100 µM (inactive) | > 100 µM (inactive) | > 100 µM (inactive) | > 100 µM (inactive) | > 100 µM (inactive) | – | – | > 100 µM (inactive) | > 100 µM (inactive) | > 100 µM (inactive) | > 100 µM (inactive) | > 100 µM (inactive) | > 100 µM (inactive) | > 100 µM (inactive) | > 100 µM (inactive) | > 100 µM (inactive) |
